# Reference: patent publication US11098042B2, “Inhibitors of influenza virus replication and uses thereof” (SUNSHINE LAKE PHARMA CO., LTD., priority 2017, dated 2021)
# Key:
# virus H1N1 A/Weiss/43 = assay: microbe, parasite or virus in culture; format: cell-based; conditions: Influenza A virus, 120 h; inhibition of CPE of H1N1 A/Weiss/43 in MDCK cells, 5 days, CCK-8
# in vivo = conditions: Sprague-Dawley (SD), rat
# Experimental: Pharmacokinetic characteristics of the compounds of the invention in SD rat were evaluated. The compounds disclosed herein were administered in form of a saline solution containing 5% DMSO, 5% Kolliphor HS 15 and 90% Saline. For intravenous administration (iv), the animals were administered with a dose of 1 mg/kg, and blood samples (0.3 mL) were collected at the time points of 0.083, 0.25, 0.5, 1.0, 2.0, 5.0, 7.0 and 24 h after drug administration, then each blood sample was processed to separate plasma by centrifugation at 3000 rpm or 4000 rpm for 10 minutes. […] Plasma samples were collected and stored at −20° C. or −70° C. until LC/MS/MS analysis.
SMILES,EC50 (virus H1N1 A/Weiss/43) [pM],further results
"CC(C)n1ccc2c(N[C@H]3C4CCC(CC4)[C@@H]3C(=O)O)nc(-c3n[nH]c4ncc(F)cc34)nc21 [Example 34, (2S,3S)-3-((2-(5-fluoro-1H-pyrazolo[3,4-b]pyridin-3-yl)-7-isopropyl-7H-pyrrolo[2,3-d]pyrimidin-4-yl)amino)bicyclo[2.2.2]octane-2-carboxylic Acid]",227,–
"O=C(O)C1C2CCC(CC2)C1Nc1cc(-c2cccs2)nc(-c2n[nH]c3ncc(Cl)cc23)n1 (racemic) [Example 29, (+/−)-trans-3-((2-(5-chloro-1H-pyrazolo[3,4-b]pyridin-3-yl)-6-(thiophen-2-yl)pyrimidin-4-yl)amino)bicyclo[2.2.2]octane-2-carboxylic Acid]",203,–
"CC(C)(C)[C@@H](CC(=O)O)Nc1nc(-c2n[nH]c3ncc(Cl)cc23)nc(-c2ccco2)c1F [Example 4, (R)-3-((2-(5-chloro-1H-pyrazolo[3,4-b]pyridin-3-yl)-5-fluoro-6-(furan-2-yl)pyrimidin-4-yl)amino)-4,4-dimethylpentanoic Acid]",75,–
"O=C(O)C1C2CCC(CC2)C1Nc1cc(-c2ccco2)nc(-c2n[nH]c3ncc(Cl)cc23)n1 (racemic) [Example 1, (+/−)-trans-3-((2-(5-chloro-1H-pyrazolo[3,4-b]pyridin-3-yl)-6-(furan-2-yl)pyrimidin-4-yl)amino)bicyclo[2.2.2]octane-2-carboxylic Acid]",59,–
"O=C(O)C1C2CCC(CC2)C1Nc1cc(-c2cc3ccccc3o2)nc(-c2n[nH]c3ncc(Cl)cc23)n1 (racemic) [Example 14, (+/−)-trans-3-((6-(benzofuran-2-yl)-2-(5-chloro-1H-pyrazolo[3,4-b]pyridin-3-yl)pyrimidin-4-yl)amino)bicyclo[2.2.2]octane-2-carboxylic Acid]",696,–
"O=C(O)[C@H]1C2CCC(CC2)[C@@H]1Nc1cc(-c2ccc(C3CC3)o2)nc(-c2n[nH]c3ncc(F)cc23)n1 [Example 15, (2S,3S)-3-((6-(5-cyclopropylfuran-2-yl)-2-(5-fluoro-1H-pyrazolo[3,4-b]pyridin-3-yl)pyrimidin-4-yl)amino)bicyclo[2.2.2]octane-2-carboxylic Acid]",303,–
"O=C(O)C1C2CCC(CC2)C1Nc1nc(-c2n[nH]c3ncc(Cl)cc23)nc(-c2ccco2)c1F (racemic) [Example 2, (+/−)-trans-3-((2-(5-chloro-1H-pyrazolo[3,4-b]pyridin-3-yl)-5-fluoro-6-(furan-2-yl)pyrimidin-4-yl)amino)bicyclo[2.2.2]octane-2-carboxylic Acid]",54,"AUC(0-inf) (in vivo; iv, 1 mg/kg): 910 ng·h/mL; AUC(0-t) (in vivo; iv, 1 mg/kg): 909 ng·h/mL; clearance (in vivo; iv, 1 mg/kg): 18.5 mL/min/kg; AUC(0-inf) (in vivo; po, 5 mg/kg): 1060 ng·h/mL; AUC(0-t) (in vivo; po, 5 mg/kg): 1060 ng·h/mL"
"O=C(O)C1C2CCC(CC2)C1Nc1cc(-c2ccccc2)nc(-c2n[nH]c3ncc(Cl)cc23)n1 (racemic) [Example 16, (+/−)-trans-3-((2-(5-chloro-1H-pyrazolo[3,4-b]pyridin-3-yl)-6-phenylpyrimidin-4-yl)amino)bicyclo[2.2.2]octane-2-carboxylic Acid]",140,–
"O=C(O)C1C2CCC(CC2)C1Nc1cc(-c2ccc3ccccc3c2)nc(-c2n[nH]c3ncc(Cl)cc23)n1 (racemic) [Example 31, (+/−)-trans-3-((2-(5-chloro-1H-pyrazolo[3,4-b]pyridin-3-yl)-6-(naphthalene-2-yl)pyrimidin-4-yl)amino)bicyclo[2.2.2]octane-2-carboxylic Acid]",513,–
"Cn1ccc2c(NC3C4CCC(CC4)C3C(=O)O)nc(-c3n[nH]c4ncc(Cl)cc34)nc21 (racemic) [Example 3, (+/−)-trans-3-((2-(5-chloro-1H-pyrazolo[3,4-b]pyridin-3-yl)-7-methyl-7H-pyrrolo[2,3-d]pyrimidin-4-yl)amino)bicyclo[2.2.2]octane-2-carboxylic Acid]",390,–
"O=C(O)C1C2CCC(CC2)C1Nc1cc(C2CC2)nc(-c2n[nH]c3ncc(Cl)cc23)n1 (racemic) [Example 30, (+/−)-trans-3-((2-(5-chloro-1H-pyrazolo[3,4-b]pyridin-3-yl)-6-cyclopropylpyrimidin-4-yl)amino)bicyclo[2.2.2]octane-2-carboxylic Acid]",350,–
